Earlier results as cited in US20030031589A1, “Control of gaseous sterilisation” (priority 2002, published 2003).
Like-named read-outs stand apart in the source and are kept apart here.

Assays:
[1] = high relative humidity
bacillus subtilis = settings: aqueous solutions; 'D' values depend on concentration and temperature

For `C=O` [formalin vapour, formaldehyde], the “effectiveness of vapour vs relative humidity” value [1] is given as “more effective at high relative humidity”.

In the case of `OO` [hydrogen peroxide], the sporicidal activity (bacillus subtilis) is given as “sporicidal”.

For `CC(=O)OO` [Peracetic vapour, peracetic acid], the effectiveness of vapour (spores; RH of 20%) is given as “ineffective” and the effectiveness of vapour (spores; RH of 80%) is given as “effective”.
